According to ChEMBL document CHEMBL1201862, “PubChem BioAssay data set” (2004):
Calls of active or inactive are those of the source.

Experiments:
[1] = HepG2 cell cytotoxicity, dose response, cytotoxicity control for Shn3 inhibitor project, CellTiter-Glo, cherry-picked (AID 624134); format: functional, cell-based
HEK293 = assay: optical interference in Abeta FP readout, dose response, artefact control for IDE activator project, biochemical, fluorescence polarization (AID 588442); format: functional, cell-based; conditions: Homo sapiens
[2] = target: T1, Heat shock factor protein 1 (Mus musculus, UniProt P38532); assay: HSF1 potentiators in luciferase reporter cells, confirmation, cell-based, NIH3T3, luminescence, dose retest (AID 435004); format: functional;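 note: stress induced by proteasome inhibitor MG132 added 30 min after compound; luciferase reporter driven by HSF1 response element in NIH3T3 cells; actives raise luminescence as potentiators of the MG132 stress response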
T1 sequence (P38532 whole entry): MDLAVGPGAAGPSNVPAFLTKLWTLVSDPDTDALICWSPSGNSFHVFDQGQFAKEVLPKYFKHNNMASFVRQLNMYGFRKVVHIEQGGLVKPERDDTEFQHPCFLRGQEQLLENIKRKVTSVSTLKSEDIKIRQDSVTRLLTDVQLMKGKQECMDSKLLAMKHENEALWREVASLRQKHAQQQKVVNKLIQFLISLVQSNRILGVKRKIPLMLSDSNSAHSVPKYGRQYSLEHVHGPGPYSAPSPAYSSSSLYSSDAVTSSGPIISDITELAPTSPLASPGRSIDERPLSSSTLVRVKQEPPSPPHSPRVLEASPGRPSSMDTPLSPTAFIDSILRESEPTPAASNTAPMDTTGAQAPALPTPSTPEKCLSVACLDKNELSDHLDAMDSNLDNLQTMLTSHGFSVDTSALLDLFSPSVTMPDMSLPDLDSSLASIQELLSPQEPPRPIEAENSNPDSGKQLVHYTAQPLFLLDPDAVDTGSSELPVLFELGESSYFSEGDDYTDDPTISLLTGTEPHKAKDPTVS

[3] = target: T2, Sentrin-specific protease 8 (Homo sapiens, UniProt Q96LD8); format: functional;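 note: luminescence read-out of SENP8 inhibition, dose-response confirmation following an ultra-high-throughput screen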
T2 sequence (Q96LD8 whole entry): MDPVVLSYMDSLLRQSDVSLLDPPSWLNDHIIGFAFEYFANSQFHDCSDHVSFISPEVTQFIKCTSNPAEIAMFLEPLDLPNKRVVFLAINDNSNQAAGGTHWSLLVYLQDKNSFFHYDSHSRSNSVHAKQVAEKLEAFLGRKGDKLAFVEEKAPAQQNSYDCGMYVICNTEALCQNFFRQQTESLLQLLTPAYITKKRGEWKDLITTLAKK

[4] = target: T3, Sentrin-specific protease 6 (Homo sapiens, UniProt Q9GZR1); format: functional;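 note: Luminescence-based dose-response confirmatory assay of SENP6 inhibition, following up an ultra-high-throughput screen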
T3 sequence (Q9GZR1 whole entry): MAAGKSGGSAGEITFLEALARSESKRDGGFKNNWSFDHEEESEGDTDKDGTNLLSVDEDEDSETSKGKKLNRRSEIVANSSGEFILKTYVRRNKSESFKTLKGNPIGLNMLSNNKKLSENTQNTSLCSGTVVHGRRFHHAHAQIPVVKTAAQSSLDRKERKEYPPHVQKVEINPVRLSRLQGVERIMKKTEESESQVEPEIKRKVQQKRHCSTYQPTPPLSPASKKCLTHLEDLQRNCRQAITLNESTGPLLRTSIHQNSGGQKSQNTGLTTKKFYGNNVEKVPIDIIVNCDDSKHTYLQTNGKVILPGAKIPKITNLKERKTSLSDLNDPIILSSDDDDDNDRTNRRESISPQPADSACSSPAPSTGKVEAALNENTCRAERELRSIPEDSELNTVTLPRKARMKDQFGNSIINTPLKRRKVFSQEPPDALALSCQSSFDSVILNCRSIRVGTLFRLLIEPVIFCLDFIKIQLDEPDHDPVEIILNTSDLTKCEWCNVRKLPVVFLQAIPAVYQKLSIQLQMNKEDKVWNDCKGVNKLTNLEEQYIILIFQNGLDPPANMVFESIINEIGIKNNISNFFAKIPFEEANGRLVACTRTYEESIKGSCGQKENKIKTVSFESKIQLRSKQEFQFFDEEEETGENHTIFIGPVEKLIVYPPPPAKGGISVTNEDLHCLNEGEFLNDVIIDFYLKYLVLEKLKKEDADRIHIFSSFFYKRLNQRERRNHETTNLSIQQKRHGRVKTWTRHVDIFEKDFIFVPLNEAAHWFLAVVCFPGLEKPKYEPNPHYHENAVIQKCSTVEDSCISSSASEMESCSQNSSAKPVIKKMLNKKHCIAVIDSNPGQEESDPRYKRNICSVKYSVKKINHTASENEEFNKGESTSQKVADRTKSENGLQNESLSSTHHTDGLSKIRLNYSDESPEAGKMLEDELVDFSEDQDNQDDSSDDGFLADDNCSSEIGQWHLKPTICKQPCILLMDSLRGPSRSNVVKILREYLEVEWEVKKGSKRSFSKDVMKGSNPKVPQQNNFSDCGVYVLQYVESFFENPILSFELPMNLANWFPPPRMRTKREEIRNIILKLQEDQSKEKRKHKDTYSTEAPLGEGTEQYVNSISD

[5] = target: T4, Sentrin-specific protease 7 (Homo sapiens, UniProt Q9BQF6); format: functional;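 note: Luminescence-based dose-response confirmation of ultra-high-throughput screening hits, measuring inhibition of SENP7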
T4 sequence (Q9BQF6 whole entry): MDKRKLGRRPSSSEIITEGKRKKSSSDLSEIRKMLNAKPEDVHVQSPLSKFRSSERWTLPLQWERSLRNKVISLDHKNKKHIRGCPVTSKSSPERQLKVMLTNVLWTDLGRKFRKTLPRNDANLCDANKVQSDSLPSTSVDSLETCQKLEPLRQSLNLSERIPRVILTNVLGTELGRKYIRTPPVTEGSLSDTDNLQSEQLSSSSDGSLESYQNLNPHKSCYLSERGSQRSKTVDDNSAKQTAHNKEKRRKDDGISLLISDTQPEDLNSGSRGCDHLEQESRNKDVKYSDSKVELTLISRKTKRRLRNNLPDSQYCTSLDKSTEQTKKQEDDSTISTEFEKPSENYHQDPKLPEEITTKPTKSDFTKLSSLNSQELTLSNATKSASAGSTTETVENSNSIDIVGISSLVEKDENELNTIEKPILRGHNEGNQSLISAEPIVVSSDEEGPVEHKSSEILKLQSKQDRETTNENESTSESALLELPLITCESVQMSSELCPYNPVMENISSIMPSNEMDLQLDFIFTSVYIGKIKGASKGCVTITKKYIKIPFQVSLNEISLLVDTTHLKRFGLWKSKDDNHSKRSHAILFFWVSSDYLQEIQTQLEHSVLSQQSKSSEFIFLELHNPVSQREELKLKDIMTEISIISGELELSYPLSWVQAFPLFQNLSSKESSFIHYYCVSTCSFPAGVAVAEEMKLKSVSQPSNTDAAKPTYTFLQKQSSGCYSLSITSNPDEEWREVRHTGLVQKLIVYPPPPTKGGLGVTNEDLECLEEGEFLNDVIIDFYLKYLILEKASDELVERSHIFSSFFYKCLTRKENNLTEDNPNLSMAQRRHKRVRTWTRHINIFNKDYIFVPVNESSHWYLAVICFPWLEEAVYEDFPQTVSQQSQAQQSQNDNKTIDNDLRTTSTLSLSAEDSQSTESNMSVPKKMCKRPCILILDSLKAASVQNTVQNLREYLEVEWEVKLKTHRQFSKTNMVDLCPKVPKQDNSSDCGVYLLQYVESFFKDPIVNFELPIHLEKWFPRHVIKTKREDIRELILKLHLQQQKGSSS

Structure (SMILES) | AC50 [1] | IC50 [3] | IC50 [4] | IC50 [5] | also measured
CC(=O)NC(c1ccc2ccccc2c1)c1ccc2cccnc2c1O (stereo not given) | 0.867 µM (active) |  |  |  | 
CCOC(=O)C1=C(c2ccccc2)N=C(N)NC1c1ccc(OCc2ccc(Cl)cc2)c(OC)c1 (stereo not given) |  |  |  |  | EC50 (HEK293): > 55.9 µM (inactive); EC50 [2]: 25 µM (active)
CCOC(=O)c1c(C)[nH]c2c1-c1ccccc1C(=O)C2=O | 3.96 µM (active) |  |  |  | 
O=C(c1ccccc1)c1coc2c1C(=O)c1ccccc1C2=O |  | 17.4 µM (active) | 4.61 µM (active) | 12.7 µM (active) | 
COc1ccc2c(c1)CCC(/C=N/c1ccc3c(c1)OCO3)=C2O |  | 15.1 µM (active) | 8.46 µM (active) | 13.1 µM (active) | 
